Measurements published in patent US9730872B2, “Method for improving skin conditions with veratric acid or acceptable salt thereof as an active ingredient” (Bio Spectrum, Inc., priority 2012, dated 2017).

Tests used:
[1] = tested on: Human hair follicle dermal papillar cells; experiment: Proliferation of human hair follicle dermal papilla cells (MTT); assay type: cell-based; settings: 0, 10 and 100 μM, 72 hours, FIG. 1
Experimental: Human hair follicle dermal papillar cells (Application, Inc., USA) were seeded into a 6-well micro plate containing DMEM medium (Gibco, USA) with FBS at a density of 3×10^5 cells per well, and then were cultured in a 5% CO2 incubator at 37° C. for 24 hours. The next day, the cells were washed once with serum-free medium, and the medium was replaced with serum-free medium. Then, the cells were treated with 0, 10 and 100 μM of veratric acid, followed by incubating for 72 hours, after which the cells were washed once with serum-free medium, the medium was replaced with serum-free medium containing 10% MTT, and after 3 hours, the optical density (O.D.) value was measured and calculated as a percentage of control.

[2] = tested on: insulin-like growth factor-1 (IGF-1); experiment: IGF-1 secretion of hair follicle dermal papilla cells (ELISA); assay type: cell-based, Human; settings: 0, 10 and 100 μM, 48 hours; FIG. 2
Experimental: (§1) Human hair follicle dermal papillar cells (Application, Inc., USA) were seeded into a 24-well micro plate at density of 7.5×10^4 cells per well, and then were cultured in a 5% CO2 incubator at 37° C. for 24 hours. Then, the medium was replaced with serum-free medium, followed by being cultured for 16 hours. Then, each well was treated with 0, 10 and 100 μM of veratric acid, after which the cells were incubated for 48 hours. Then, the cell culture media were collected.
The secretion rate of growth factor insulin-like growth factor-1 (IGF-1) was determined by measuring the amount of secretion rate of IGF-1 using Insulin-like growth factor-1 quantikine ELISA kit (DG100, R&D system, USA).

[3] = tested on: transforming growth factor-beta1 (TGF-beta1); experiment: Inhibition of TGF-beta1 production in hair follicle dermal papilla cells (ELISA); assay type: cell-based, Human; settings: 0, 10 and 100 μM, 48 hours; FIG. 3
Experimental: as §1, with “plate at a density of” for “plate at density of”
The secretion rate of transforming growth factor-beta1 (TGF-beta1) was determined by measuring the amount of secretion rate of TGF-beta1 using Human LAP TFG-beta1 ELISA kit (ab100647, abcam, USA).

[4] = tested on: procollagen type I C-peptide (PICP); experiment: Collagen synthesis in human normal fibroblasts (PICP EIA); assay type: cell-based; settings: 0, 1, 10 and 100 μM, 24 hours; FIG. 4
Experimental: Human normal fibroblasts (Department of Dermatology, Ajou University) were seeded into a 24-well micro plate containing DMEM medium at a density of about 2×10^5 cells per well, and were cultured in a 5% CO2 incubator at 37° C. for 24 hours. Then, the medium was removed from each well of the plate, and each well was treated with 0, 1, 10 and 100 μM concentrations of veratric acid, after which the cells were cultured for 24 hours. Then, the cell medium was collected, thereby preparing samples.
The amounts of collagen synthesis in the above-prepared samples was determined by measuring the amount of procollagen type I C-peptide (PICP) using a Procollagen Type I C-peptide EIA kit (MK101; Takara, Kyoto, Japan).

Keratinocyte (HaCaT) = experiment: UV-preventing effect, cell viability after UVB (MTT), keratinocytes; assay type: cell-based; settings: pretreated 0, 1, 10 and 100 μM 24 hours, UVB 20 mJ/cm^2, 48 hours; FIG. 6
Experimental: (§2) Keratinocyte (HaCaT) and fibroblast were cultured in DMEM medium containing penicillin-streptomycin and serum. Then, the cells were seeded into a 12-well micro plate at density of about 1×10^5 cells per well, and were cultured in a 5% CO2 incubator at 37° C. until the cells attached about 80% over on well-area. Then, each well was pretreated with 0, 1, 10 and 100 μM of veratric acid, and after 24 hours, the medium was replaced with PBS, and then the cells were irradiated with UV (UVB 20 mJ/cm^2). Then, the UV-irradiated cells were replaced DMEM medium containing penicillin-streptomycin and serum, the cells were incubated for 48 hours. The cell viability was determined by measuring the viability of keratinocyte (HaCaT) and fibroblast using a MTT assay (30-1010K, ATCCTM).

fibroblast = experiment: UV-preventing effect, cell viability after UVB (MTT), fibroblasts; assay type: cell-based; settings: pretreated 0, 1, 10 and 100 μM 24 hours, UVB 20 mJ/cm^2, 48 hours; FIG. 5
Experimental: as §2

collagenase (MMP-1) = experiment: Inhibition of collagenase production in human normal fibroblasts (MMP-1 ELISA); assay type: cell-based; settings: 0, 1, 10 and 100 μM, 24 hours; FIG. 7
Experimental: Human normal fibroblasts (Department of Dermatology, Ajou University) were seeded into a 24-well micro plate containing DMEM medium at a density of about 2×10^5 cells per well, and were then cultured in a 5% CO2 incubator at 37° C. for 24 hours. Then, the medium was removed from each well, and the cells were treated with 0, 1, 10 and 100 μM concentrations of veratric acid. Then, the cells were cultured for 24 hours, after which the cell culture media were collected, thereby preparing samples.
The inhibition effects of collagenase production was determined by measuring the amount of collagenase using MMP-1 ELISA kit (QIA55, Merck, Germany).

human skin = experiment: Wrinkle-reducing effect of nourishing cream, skin elasticity; assay type: in vivo; settings: face, twice a day, 3 months, scale 0 to 5
Experimental: Specifically, an aqueous phase including purified water, triethanolamine, and propylene glycol was dissolved by heating to 70° C., and an oily phase including fatty acid, oily components, an emulsifier, and a preservative was dissolved by heating to 70° C. and added to the aqueous phase. Then, the resulting solution was cooled to 45° C., and veratric acid was added with in amounts of 0, 0.01, 0.05 and 1 wt % based on the total weight of the composition and was dispersed, followed by cooling to 30° C.
In the measurement of skin elasticity, nourishing creams described in Preparation Example 8-1 was applied to the face of 30 healthy women of 21 to 42 years old twice a day for 3 months. The control group was used nourishing cream containing purified water.
The effect on wrinkle reduction was evaluated by measuring a change in skin elasticity. The measurement of skin elasticity was performed with Coutometer SEM 474 (Courage+Khazaka, Cologne, Germany) under the conditions of constant temperature of 24˜26° C. and constant humidity of 38-40%. The evaluation criteria were as follows 0 indicating no improvement in skin elasticity, and 5 indicating improvement in skin elasticity.

[5] = tested on: hairless mice (Skh: HR-1); experiment: Wrinkle prevention by oral administration in UV-irradiated hairless mice (skin replicas); assay type: in vivo; settings: 100 mg per kg oral, 5 weeks
Experimental: In order to measure the wrinkle-preventing effect of veratric acid, 6-7-week-old hairless mice (Skh: HR-1) were divided into a control group, a UV group and a UV/veratric acid group, each consisting of 8 animals, and were bred during the test period. The control group and the UV group were administered orally with 0.5 ml of saline, and the UV/veratric acid group was administered orally with a solution of 100 mg per kg veratric acid in 0.5 ml of saline.
The above-prepared samples were administered orally at the same point of time for 5 days a week for a total of 5 weeks. From 2 weeks to 5 weeks after oral administration, the UV group and the UV/veratric acid group were irradiated with UV light three times a week such that the total dose of UV radiation reached 600 mJ/cm^2.
To measure the wrinkle-preventing effect of veratric acid, skin replicas were taken from the back of the hairless mice using a silicon polymer before autopsy. In the same manner, after 5 weeks, skin replicas were taken from the groups treated with each of the samples. Using the taken skin replicas, the antiaging effect, i.e., wrinkle-reducing effect of each sample was measured.

[6] = UV/veratric acid group, UV total 600 mJ/cm^2

COc1ccc(C(=O)O)cc1OC [Veratric acid, 3,4-dimethoxybenzoic acid]
proliferation of human hair follicle dermal papilla cells (O.D. as percentage of control) [1]: increased the proliferation of human hair follicle dermal papilla cells in a concentration-dependent manner | IGF-1 secretion [2]: increased the IGF-1 secretion of human hair follicle dermal pailla cells in a concentration-dependent manner | TGF-beta1 production [3]: excellently inhibited TGF-beta1 production | collagen synthesis (PICP) [4]: increased collagen synthesis | cell death of UV-induced keratinocyte (cell viability) (Keratinocyte (HaCaT)): prevented cell death | cell death of UV-induced fibroblasts (cell viability) (fibroblast): prevented cell death | collagenase production (collagenase (MMP-1)): decreased collgenase production in human normal fibroblasts | Skin elasticity (human skin; veratric acid 0.01 wt %): 2.81 | Skin elasticity (human skin; veratric acid 0.05 wt %): 3.12 | Skin elasticity (human skin; veratric acid 1 wt %): 3.36 | R-parameter value compared to the UV/control groups [5]: reduced | R1 value: Skin roughness [5, 6]: 0.462 ± 0.013 | R2 value: Maximum roughness [5, 6]: 0.405 ± 0.011 | R3 value: Average roughness [5, 6]: 0.219 ± 0.012 | R4 value: Smoothness depth [5, 6]: 0.116 ± 0.010 | R5 value: Arithmetic average roughness [5, 6]: 0.290 ± 0.013
